Measurements: patent publication US20240116985A1, “STAPLED PEPTIDES AND METHODS THEREOF” (priority 2020, published 2024)
≈ marks a conversion by molar mass, not a printed value. Where two headings read alike, the source gives them in different places.

Columns and labels:
[1] = molecular target: T1, full-length beta-Catenin (Uniprot ID P35222) (Homo sapiens, UniProt P35222); test: Fluorescence polarization IC50 (beta-catenin / 5FAM-TCF4 10-53 competition); type: binding
T1 construct: 10 nM full-length beta-Catenin (Uniprot ID P35222)
T1 sequence (P35222 1-781): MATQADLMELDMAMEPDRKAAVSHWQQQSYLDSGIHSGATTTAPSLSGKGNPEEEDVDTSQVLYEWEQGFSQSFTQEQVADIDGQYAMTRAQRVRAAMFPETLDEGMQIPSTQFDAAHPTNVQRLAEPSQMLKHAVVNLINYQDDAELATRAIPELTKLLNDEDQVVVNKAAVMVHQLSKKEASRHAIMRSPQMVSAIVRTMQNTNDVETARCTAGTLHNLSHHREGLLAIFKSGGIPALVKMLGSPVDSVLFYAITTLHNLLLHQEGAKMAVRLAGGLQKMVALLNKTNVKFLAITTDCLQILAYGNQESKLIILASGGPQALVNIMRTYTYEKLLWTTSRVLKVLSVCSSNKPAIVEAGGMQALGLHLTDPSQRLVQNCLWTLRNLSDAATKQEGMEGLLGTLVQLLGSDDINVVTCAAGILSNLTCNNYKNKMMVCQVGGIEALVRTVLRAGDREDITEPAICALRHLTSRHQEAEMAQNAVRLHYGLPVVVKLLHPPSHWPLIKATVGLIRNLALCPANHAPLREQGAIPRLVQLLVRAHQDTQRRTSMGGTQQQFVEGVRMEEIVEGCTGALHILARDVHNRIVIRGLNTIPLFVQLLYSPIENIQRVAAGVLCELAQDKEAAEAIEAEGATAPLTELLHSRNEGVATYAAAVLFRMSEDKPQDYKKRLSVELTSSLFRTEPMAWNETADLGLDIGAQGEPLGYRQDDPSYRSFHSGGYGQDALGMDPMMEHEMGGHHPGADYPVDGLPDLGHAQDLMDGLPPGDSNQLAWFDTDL

CHI Log D procedure = type: physicochemical; details: for CHI Log D: pH 7.4
Solubility in PBS = type: physicochemical
Summary of the method: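 Solubility is derived from HPLC peak areas: the ratio of the PBS supernatant peak to a 50 μM DMSO peptide peak, times 50 uM.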

[2] = fluorescence polarization, read-out: beta-Catenin FP IC50
[3] = read-out: beta-Catenin FP IC50, fluorescence polarization

SMILES | IC50 [1, 2] [µM] | chromatographic logD (CHI Log D procedure; pH 7.4, CHI Log D) | Solubility (Solubility in PBS; Solubility (uM)) [µM] | IC50 ([1]; read-out: FP EC50) [µM] | IC50 [1, 3] [µM] | CHI Log D (CHI Log D procedure) | Solubility (Solubility in PBS) [µM] | IC50 ([1]; read-out: bCat FP IC50) [µM] | chromatographic logD (CHI Log D procedure; pH 7.4, LogD)
CC[C@H](C)[C@@H]1NC(=O)[C@H](CC(=O)O)NC(=O)[C@]2(CC=CCCCC3(CCCC=CCCCCCC[C@@](C)(C(=O)N[C@@H](Cc4ccccc4)C(=O)N[C@@H](Cc4csc5ccccc45)C(=O)N[C@@H](CCC(N)=O)C(N)=O)NC(=O)[C@H](CCC(N)=O)NC(=O)[C@H](Cc4ccccc4)NC(=O)[C@H](C)NC(=O)[C@H](C)NC(=O)[C@H](CCC(=O)O)NC(=O)[C@H](CC(=O)O)NC3=O)NC1=O)CCCN2C(=O)c1ccccn1 (stereo partly drawn) [I-599, Pic-PL3-Asp-Ile-B5-Asp-Glu-Ala-Ala-Phe-Gln-S8-Phe-BztA-Gln-NH2] | 0.138 | 2.42 | 45 (≈ 87.6 µg/mL) |  |  |  |  |  | 
CC[C@H](C)[C@@H]1NC(=O)[C@H](CC(=O)O)NC(=O)[C@]2(CC=CCCCC3(CCCC=CCCCCCC[C@@](C)(C(=O)N[C@@H](Cc4ccccc4)C(=O)N[C@@H](Cc4csc5ccccc45)C(=O)N[C@@H](CCC(N)=O)C(N)=O)NC(=O)[C@H](CCC(N)=O)NC(=O)[C@H](Cc4ccccc4)NC(=O)[C@H](C)NC(=O)[C@H](C)NC(=O)[C@H](CCC(=O)O)NC(=O)[C@H](CC(=O)O)NC3=O)NC1=O)CCCN2C(=O)Cc1ccccc1 (stereo partly drawn) [I-600, Bnc-PL3-Asp-Ile-B5-Asp-Glu-Ala-Ala-Phe-Gln-S8-Phe-BztA-Gln-NH2] |  |  |  | 0.796 | 0.796 | 2.694 | 47 (≈ 92.1 µg/mL) |  | 
CC[C@H](C)[C@@H]1NC(=O)[C@H](CC(=O)O)NC(=O)[C@]2(CC=CCCCC3(CCCC=CCCCCCC[C@@](C)(C(=O)N[C@@H](Cc4ccccc4)C(=O)N[C@@H](Cc4csc5ccccc45)C(=O)N[C@@H](CCC(N)=O)C(N)=O)NC(=O)[C@H](CCC(N)=O)NC(=O)[C@H](Cc4ccccc4)NC(=O)[C@H](C)NC(=O)[C@H](C)NC(=O)[C@H](CCC(=O)O)NC(=O)[C@H](CC(=O)O)NC3=O)NC1=O)CCCN2C(=O)Cc1ccccc1 (stereo partly drawn) [I-601, Bnc-PL3-Asp-Ile-B5-Asp-Glu-Ala-Ala-Phe-Gln-S8-Phe-BztA-Gln-NH2] |  |  |  | 0.419 | 0.419 | 2.748 | 43 (≈ 84.2 µg/mL) |  | 
CC[C@H](C)[C@@H]1NC(=O)[C@H](CC(=O)O)NC(=O)[C@]2(CC=CCCCC3(CCCC=CCCCCCC[C@@](C)(C(=O)N[C@@H](Cc4ccccc4)C(=O)N[C@@H](Cc4csc5ccccc45)C(=O)N[C@@H](CCC(N)=O)C(N)=O)NC(=O)[C@H](CCC(N)=O)NC(=O)[C@H](Cc4ccccc4)NC(=O)[C@H](C)NC(=O)[C@H](C)NC(=O)[C@H](CCC(N)=O)NC(=O)[C@H](CC(=O)O)NC3=O)NC1=O)CCCN2C(C)=O (stereo partly drawn) [I-603, Ac-PL3-Asp-Ile-B5-Asp-Gln-Ala-Ala-Phe-Gln-S8-Phe-BztA-Gln-NH2] | 0.392 | 2.62 |  |  |  |  | 10 (≈ 18.8 µg/mL) |  | 
CC[C@H](C)[C@@H]1NC(=O)[C@H](CC(=O)O)NC(=O)[C@]2(CC=CCCCC3(CCCC=CCCCCCC[C@@](C)(C(=O)N[C@@H](Cc4ccccc4)C(=O)N[C@@H](Cc4csc5ccccc45)C(=O)N[C@@H](CCC(N)=O)C(N)=O)NC(=O)[C@H](CCC(N)=O)NC(=O)[C@H](Cc4ccccc4)NC(=O)[C@H](C)NC(=O)[C@H](C)NC(=O)[C@H](CCCNC(N)=O)NC(=O)[C@H](CC(=O)O)NC3=O)NC1=O)CCCN2C(C)=O (stereo partly drawn) [I-604, Ac-PL3-Asp-Ile-B5-Asp-Cit-Ala-Ala-Phe-Gln-S8-Phe-BztA-Gln-NH2] | 0.692 |  |  | 0.692 |  | 2.609 | 10 (≈ 19.1 µg/mL) |  | 
CC[C@H](C)[C@@H]1NC(=O)[C@H](CC(=O)O)NC(=O)[C@]2(CC=CCCCC3(CCCC=CCCCCCC[C@@](C)(C(=O)N[C@@H](Cc4ccccc4)C(=O)N[C@@H](Cc4csc5ccccc45)C(=O)N[C@@H](CCC(N)=O)C(N)=O)NC(=O)[C@H](CCC(N)=O)NC(=O)[C@H](Cc4ccccc4)NC(=O)[C@H](C)NC(=O)[C@H](C)NC(=O)[C@H](CCCNC(N)=O)NC(=O)[C@H](CC(=O)O)NC3=O)NC1=O)CCCN2C(C)=O (stereo partly drawn) [I-605, Ac-PL3-Asp-Ile-B5-Asp-Cit-Ala-Ala-Phe-Gln-S8-Phe-BztA-Gln-NH2] | 0.632 |  |  | 0.632 |  | 2.617 | 10 (≈ 19.1 µg/mL) |  | 
CC[C@H](C)[C@@H]1NC(=O)[C@H](CC(=O)O)NC(=O)[C@]2(CC=CCCCC3(CCCC=CCCCCCC[C@@](C)(C(=O)N[C@@H](Cc4ccccc4)C(=O)N[C@@H](Cc4csc5ccccc45)C(=O)N[C@@H](CCC(N)=O)C(N)=O)NC(=O)[C@H](CCC(N)=O)NC(=O)[C@H](Cc4ccccc4)NC(=O)[C@H](C)NC(=O)[C@H](C)NC(=O)[C@H](Cc4ccc(C(=O)O)cc4)NC(=O)[C@H](CC(=O)O)NC3=O)NC1=O)CCCN2C(C)=O (stereo partly drawn) [I-606, Ac-PL3-Asp-Ile-B5-Asp-4COOHF-Ala-Ala-Phe-Gln-S8-Phe-BztA-Gln-NH2] | 0.289 |  |  | 0.289 |  | 2.412 | 49 (≈ 95.3 µg/mL) |  | 
CC[C@H](C)[C@@H]1NC(=O)[C@H](CC(=O)O)NC(=O)[C@]2(CC=CCCCC3(CCCC=CCCCCCC[C@@](C)(C(=O)N[C@@H](Cc4ccccc4)C(=O)N[C@@H](Cc4csc5ccccc45)C(=O)N[C@@H](CCC(N)=O)C(N)=O)NC(=O)[C@H](CCC(N)=O)NC(=O)[C@H](Cc4ccccc4)NC(=O)[C@H](C)NC(=O)[C@H](C)NC(=O)[C@H](Cc4ccc(C(=O)O)cc4)NC(=O)[C@H](CC(=O)O)NC3=O)NC1=O)CCCN2C(C)=O (stereo partly drawn) [I-607, Ac-PL3-Asp-Ile-B5-Asp-4COOHF-Ala-Ala-Phe-Gln-S8-Phe-BztA-Gln-NH2] | 0.253 |  |  | 0.253 |  | 2.416 | 48 (≈ 93.4 µg/mL) |  | 
CC[C@H](C)[C@@H]1NC(=O)[C@H](CC(=O)O)NC(=O)[C@]2(CC=CCCCC3(CCCC=CCCCCCC[C@@](C)(C(=O)N[C@@H](Cc4ccccc4)C(=O)N[C@@H](Cc4csc5ccccc45)C(=O)N[C@@H](CCC(N)=O)C(N)=O)NC(=O)[C@H](CCC(N)=O)NC(=O)[C@H](Cc4ccccc4)NC(=O)[C@H](C)NC(=O)[C@H](C)NC(=O)[C@H](CCCC(=O)O)NC(=O)[C@H](CC(=O)O)NC3=O)NC1=O)CCCN2C(C)=O (stereo partly drawn) [I-612, Ac-PL3-Asp-Ile-B5-Asp-Aad-Ala-Ala-Phe-Gln-S8-Phe-BztA-Gln-NH2] |  | 2.41 | > 25 |  |  |  | 49 (≈ 93 µg/mL) | 0.064 | 2.4
CC[C@H](C)[C@@H]1NC(=O)[C@H](CC(=O)O)NC(=O)[C@]2(CC=CCCCC3(CCCC=CCCCCCC[C@@](C)(C(=O)N[C@@H](Cc4ccccc4)C(=O)N[C@@H](Cc4csc5ccccc45)C(=O)N[C@@H](CCC(N)=O)C(N)=O)NC(=O)[C@H](CCC(N)=O)NC(=O)[C@H](Cc4ccccc4)NC(=O)[C@H](C)NC(=O)[C@H](C)NC(=O)[C@H](CCCNC(=N)N)NC(=O)[C@H](CC(=O)O)NC3=O)NC1=O)CCCN2C(C)=O (stereo partly drawn) [I-613, Ac-PL3-Asp-Ile-B5-Asp-Arg-Ala-Ala-Phe-Gln-S8-Phe-BztA-Gln-NH2] | 1.63 |  |  | 1.63 |  | 2.781 | 10 (≈ 19.1 µg/mL) |  | 
CC[C@H](C)[C@@H]1NC(=O)[C@H](CC(=O)O)NC(=O)[C@]2(CC=CCCCC3(CCCC=CCCCCCC[C@@](C)(C(=O)N[C@@H](Cc4ccccc4)C(=O)N[C@@H](Cc4csc5ccccc45)C(=O)N[C@@H](CCC(N)=O)C(N)=O)NC(=O)[C@H](CCC(N)=O)NC(=O)[C@H](Cc4ccccc4)NC(=O)[C@H](C)NC(=O)[C@H](C)NC(=O)[C@H](CCCNC(=N)N)NC(=O)[C@H](CC(=O)O)NC3=O)NC1=O)CCCN2C(C)=O (stereo partly drawn) [I-614, Ac-PL3-Asp-Ile-B5-Asp-Arg-Ala-Ala-Phe-Gln-S8-Phe-BztA-Gln-NH2] | 1.14 |  |  | 1.14 |  | 2.801 | 10 (≈ 19.1 µg/mL) |  | 
CC(=O)N1CCC[C@]12CC=CCCCC1(CCCC=CCCCCCC[C@@](C)(C(=O)N[C@@H](Cc3ccccc3)C(=O)N[C@@H](Cc3csc4ccccc34)C(=O)N[C@@H](Cc3c[nH]cn3)C(N)=O)NC(=O)[C@H](CC(N)=O)NC(=O)[C@H](Cc3ccccc3)NC(=O)[C@H](C)NC(=O)[C@H](C)NC(=O)[C@H](CCC(=O)O)NC(=O)[C@H](CC(=O)O)NC1=O)NC(=O)[C@H](CC1CCCCC1)NC(=O)[C@H](CC(=O)O)NC2=O (stereo partly drawn) [I-615, Ac-PL3-Asp-Cha-B5-Asp-Glu-Ala-Ala-Phe-Asn-S8-Phe-BztA-His-NH2] | 0.05 | 2.83 |  |  |  |  | 10 (≈ 19.2 µg/mL) |  | 
